# Assays:
# [1] = test system: MSH3 poison exon 14A; assay: RT-PCR of MSH3 exon 13/PE14A and PE14A/exon 14 amplicons in cynomolgus monkey fibroblasts (FIG. 13); type: cell-based; details: 24 hours
# Protocol: (§1) To further validate MSH3 poison exon 14A, RT-PCR was used to analyze MSH3 exon 13/poison exon 14A, and poison exon 14A/exon 14 amplicons. Briefly, Cynomolgus monkey primary dermal fibroblasts (Cellosaurus) and HEK293 cells (ATCC) were cultured in DMEM (ThermoFisher Scientific) supplemented with 10% fetal bovine serum (Avantor) and 0.1 μg/mL Primocin (Invivogen). All cell lines were maintained at sub-confluency and grown in a humidified incubator at 37° C. with 5% CO2. RNA was purified using Qiashredder and RNeasy kits (Qiagen), cDNA was prepared with MultiScribe Reverse Transcriptase (ThermoFisher Scientific) and PCR with GoTaq Green Master Mix (Promega). Primers (IDT) used were the following: Fwd-Exon 13 (5′-[…] (SEQ ID NO: 20)), Rev-PE14A (5′-[…] (SEQ ID NO: 21)), Fwd-PE14A (5′-[…] (SEQ ID NO: 22)), Rev-Exon 14 (5′-[…] (SEQ ID NO: 23)), Fwd-GAPDH (5′-[…] (SEQ ID NO: 24)), Rev-GAPDH (5′-ACCCGTTGACTCCGACCT (SEQ ID NO: 25)).
# [2] = test system: MSH3 protein; assay: Western blot of MSH3 protein in HEK293 WT and PE5 CAG clones (FIG. 12C); type: cell-based, human
# Protocol: (§2) In this example, MSH3 poison exon 14A (PE5) and poison exon 21A (PE4) were validated. Briefly, HEK293 parental and clonal cells (Synthego) were cultured in DMEM (ThermoFisher Scientific) supplemented with 10% fetal bovine serum (Avantor) and 0.1 μg/mL Primocin (Invivogen). All cell lines were maintained at sub-confluency and grown in a humidified incubator at 37° C. with 5% CO2. HEK293 clonal cells were generated by Synthego's proprietary CRISPR methods to replace PE14A 5′ splice site with a strong donor (TGAGTTG>CAGGTTA) at the endogenous locus. Two clones (C3 and H2) were isolated to express 99-100% of the desired knock-in mutation. Two clones were generated from the parental line HEK293 without any editing (wild-type WTl3 and WT7) to be used as controls. […] RNA, cDNA and qPCR was prepared using TaqMan Cells-to-CT Express kit (ThermoFisher Scientific). Taqman assays (ThermoFisher Scientific) were used for quantification of total MSH3 exons 13/14 (cat #4351372, ID #: Hs00988993_ml), total MSH3 exons 20/21 (cat #4351372, ID #: Hs00989000_ml), exon 13/PE14A (Fwd: 5′-[…] (SEQ ID NO: 14); Rev: 5′-[…] (SEQ ID NO: 15); Probe: 5′-[…] (SEQ ID NO: 16)) and exon 20/PE21A (Fwd: 5′-[…] (SEQ ID NO: 17); Rev: 5′-[…] (SEQ ID NO: 18); Probe: 5′-[…] (SEQ ID NO: 19)) mRNA expression. […] Protein concentrations were determined by Rapid Gold BCA (ThermoFisher Scientific). […]
# [3] = test system: MSH3 poison exon 14A; assay: RT-PCR of MSH3 exon 13/PE14A and PE14A/exon 14 amplicons in HEK293 cells (FIG. 13); type: cell-based, human; details: 24 hours
# Protocol: as §1
# [4] = test system: MSH3 exon 20/PE21A mRNA (PE4); assay: qPCR of MSH3 PE4 (exon 20/PE21A) in HEK293 WT and PE14A CAG clones (FIG. 12B); type: cell-based, human; details: HEK293 wild-type clones, 24 hours
# Protocol: as §2
# [5] = test system: MSH3 exon 13/PE14A mRNA (PE5); assay: qPCR of MSH3 PE5 (exon 13/PE14A) in HEK293 WT and PE14A CAG clones (FIG. 11B); type: cell-based, human
# Protocol: as §2
# [6] = test system: MSH3 exons 13/14 mRNA; assay: qPCR of total MSH3 exons 13/14 in HEK293 WT and PE14A CAG clones (FIG. 11A); type: cell-based, human
# Protocol: as §2
# [7] = test system: MSH3 exons 20/21 mRNA; assay: qPCR of total MSH3 exons 20/21 in HEK293 WT and PE14A CAG clones (FIG. 12A); type: cell-based, human; details: HEK293 wild-type clones, 24 hours
# Protocol: as §2
# [8] = HEK293 wild-type clones, 24 hours
structure (smiles),measurement,setting,value
Cc1nn(C)cc1-c1cc(F)c2c(c1)C(=O)N(c1ccc(N(C)[C@H]3C[C@]4(C)CC[C@](C)(C3)N4)nn1)C2 [Compound A],13/PE14A amplicon,[1],increase
same,PE14A/14 amplicon,[1],increase
same,MSH3 protein levels,[2]; PE5 CAG clones,decreased in MSH3 levels
same,MSH3 protein levels,[2]; wild-type clones,decreased in MSH3 levels
same,13/PE14A amplicon,[3],increase
same,PE14A/14 amplicon,[3],increase
same,PE4-specific expression,[4],increasing PE4-specific expression
same,PE5-specific expression,[5]; [8],increasing PE5-specific expression
same,further increase of PE5,"[5]; PE5 CAG clones C3 and H2, 24 hours, starting at 0.3-1 μM",20-30%
same,"MSH3 expression (total, exons 13/14)",[6]; [8],lowering MSH3 expression
same,"MSH3 expression (total, exons 13/14)","[6]; PE5 CAG clones C3 and H2, 24 hours",No further decrease
same,"MSH3 expression (total, exons 20/21)",[7],lowering MSH3 expression
